{"source": "patent US20040063692A1", "about": "“Bazedoxifene treatment regimens” (Wyeth, priority 2002, published 2004)", "assay_type_in_all_cases": "in vivo, Female Sprague Dawley CD rats", "key": {"[1]": {"tested_on": "ovariectomized (ovx) rats", "experiment": "Uterine weight in ovariectomized rats, daily or once weekly dosing", "conditions": "6 weeks", "source_text": "(§1) The ability of bazedoxifene to be successfully administered on an extended dosing regimen was established in an in vivo standard pharmacological test procedure which evaluated bone mineral density (BMD), change in body weight, and uterine weight using bazedoxifene acetate as a representative compound of this invention. The following briefly describes the procedure used and results obtained in the standard pharmacological test procedure.\n(§2) Female Sprague Dawley CD rats, ovariectomized (ovx) or sham ovx, were obtained 1 day after surgery from Taconic Farm (weight range 240-275 g). They were housed 3 or 4 rats/cage in a room on a 14/10 (light/dark) schedule and provided with food (Purina 500 rat chow) and water ad libitum. Treatment for all studies began 1 day after the animals arrival and dosed either daily or once weekly as indicated for 6 weeks. A group of age matched sham operated rats not receiving any treatment served as an intact, estrogen replete control group for each study. All treatments were prepared in 1% tween 80 in normal saline at defined concentrations so that the treatment volume was 0.1 mL/100 g body weight.\n(§3) One week after BMD evaluation the rats were euthanized by carbon dioxide suffocation. The uteri were removed and the weights taken. The following table summarizes the results that were obtained. The sham group was not ovariectomized; all other groups were ovariectomized. In the table below, bazedoxifene acetate is abbreviated as BZA."}, "[2]": {"experiment": "Change in body weight in ovariectomized rats, daily or once weekly dosing", "conditions": "ovx rats, 6 weeks", "source_text": "as §1, §2, §3"}, "[3]": {"tested_on": "ovariectomized (ovx) rats", "experiment": "Bone mineral density (BMD) in ovariectomized rats, daily or once weekly dosing", "conditions": "measured five weeks after initiation of treatment", "source_text": "as §1, §2\nFive weeks after the initiation of treatment and one week prior to the termination of the study, each rat was evaluated for bone mineral density (BMD). The BMD's of the proximal tibiae (PT) and fourth lumbar vertabrae (L4) were measured in anesthetized rats using a dual energy X-ray absorptiometer (Eclipse XR-26, Norland Corp. Ft. Atkins, Wis.). The dual energy X-ray absorptiometer (DXA) measurements for each rat were performed as follows: Fifteen minutes prior to DXA measurements, the rat was anesthetized with an intraperitoneal injection of 100 mg/kg ketamine (Bristol Laboratories, Syracuse, N.Y.) and 0.75 mg/kg acepromazine (Aveco, Ft.Dodge, Iowa). The rat was placed on an acrylic table under the DXA scanner perpendicular to its path; the limbs were extended and secured with paper tape to the surface of the table. A preliminary scan was performed at a scan speed of 50 mm/second with a scan resolution of 1.5 mm×1.5 mm to determine the region of interest in PT and L4. Small subject software was employed at a scan speed of 10 mm/second with resolution of 0.5 mm X 0.5 mm for final BMD measurements. The software allows the operator to define a 1.5 cm wide area to cover the total length of L4. The BMDs for respective sites were computed by the software as a function of the attenuation of the dual beam (46.8 KeV and 80 KeV) X-ray generated by the source underneath the subject and the detector travelling along the defined area above the subject. The data for BMD values (expressed in g/cm2) and individual scans were stored for statistical analysis."}}}
{"compound": "Cc1c(-c2ccc(O)cc2)n(Cc2ccc(OCCN3CCCCCC3)cc2)c2ccc(O)cc12", "note": "[BZA, 1-[4-(2-azepan-1-yl-ethoxy)-benzyl]-2-(4-hydroxy-phenyl)-3-methyl-1H-indol-5-ol]", "values": [{"measurement": "Uterine Weight, Mean ± SEM", "setting": "[1]; 0.3 mg/kg 1×/week", "value": "131.3 ± 7.0", "unit": "mg"}, {"measurement": "Uterine Weight, Mean ± SEM", "setting": "[1]; 0.3 mg/kg 7×/week", "value": "140.3 ± 6.3", "unit": "mg"}, {"measurement": "Uterine Weight, Mean ± SEM", "setting": "[1]; 1.0 mg/kg 1×/week", "value": "149.9 ± 5.0", "unit": "mg"}, {"measurement": "Uterine Weight, Mean ± SEM", "setting": "[1]; 3.0 mg/kg 1×/week", "value": "127.3 ± 10.9", "unit": "mg"}, {"measurement": "Δ Body Weight, Mean ± SEM", "setting": "[2]; 0.3 mg/kg 1×/week", "value": "80.5 ± 2.0", "unit": "g"}, {"measurement": "Δ Body Weight, Mean ± SEM", "setting": "[2]; 0.3 mg/kg 7×/week", "value": "60 ± 5.6", "unit": "g"}, {"measurement": "Δ Body Weight, Mean ± SEM", "setting": "[2]; 1.0 mg/kg 1×/week", "value": "71.3 ± 4.8", "unit": "g"}, {"measurement": "Δ Body Weight, Mean ± SEM", "setting": "[2]; 3.0 mg/kg 1×/week", "value": "59.3 ± 7.0", "unit": "g"}, {"measurement": "Total BMD, Mean ± SEM", "setting": "[3]; 0.3 mg/kg 1×/week", "value": "556.56 ± 20.5", "unit": "mg/mL"}, {"measurement": "Trabecular BMD, Mean ± SEM", "setting": "[3]; 0.3 mg/kg 1×/week", "value": "361.93 ± 34.5", "unit": "mg/mL"}, {"measurement": "Total BMD, Mean ± SEM", "setting": "[3]; 0.3 mg/kg 7×/week", "value": "604.33 ± 18.6", "unit": "mg/mL"}, {"measurement": "Trabecular BMD, Mean ± SEM", "setting": "[3]; 0.3 mg/kg 7×/week", "value": "425.90 ± 26.3", "unit": "mg/mL"}, {"measurement": "Total BMD, Mean ± SEM", "setting": "[3]; 1.0 mg/kg 1×/week", "value": "562.90 ± 7.7", "unit": "mg/mL"}, {"measurement": "Trabecular BMD, Mean ± SEM", "setting": "[3]; 1.0 mg/kg 1×/week", "value": "353.03 ± 15.7", "unit": "mg/mL"}, {"measurement": "Total BMD, Mean ± SEM", "setting": "[3]; 3.0 mg/kg 1×/week", "value": "589.36 ± 10.9", "unit": "mg/mL"}, {"measurement": "Trabecular BMD, Mean ± SEM", "setting": "[3]; 3.0 mg/kg 1×/week", "value": "427.00 ± 10.0", "unit": "mg/mL"}]}
